The target in series [1] is T1, α-chymotrypsinogen A (aCgn) (Bos taurus, UniProt P00766). The series is described as follows: aCgn aggregation (monomer loss) at 52.5° C. by size exclusion HPLC. The following applies: for aCgn aggregation suppression compared with other salt forms / generations (FIG. 5, 6, 8): 10 mg/mL aCgn, pH 5, 52.5° C.; for aCgn t95/t95, 0 (Shelf-Life Extension Factor): isotonic concentrations, 20 mM sodium citrate pH 5, 52.5° C., time for 5% loss of protein vs no additive; for rate of aCgn monomer loss compared to the reference solution: additive 0.05 M. It is filed as physicochemical, Bovine. The procedure: The aggregation of aCgn was accelerated by incubating samples at an elevated temperature. […] In addition to all aggregation experiments being conducted at that temperature, all samples contained 10 mg/mL aCgn, held at pH 5.0 using a 20 mM sodium citrate buffer. 50 μL aliquots of each protein-cosolute mixture were placed in 0.2 mL polymerase chain reaction (PCR) tubes and then incubated in a Bio-Rad Mycycler thermal cycler with a timer initiated when the thermal cycler reached the desired temperature. Each series contained 12 samples and up to 8 different mixtures were tested at the same time during any given experiment. Samples were removed periodically and immediately placed in an ice bath to quench the aggregation reaction. The length of each experiment was planned so that the extent of reaction was such that at least 20% of the protein aggregated, making changes in the rate of aggregation pronounced. After at least five minutes in the ice bath, the samples were briefly spun in a minicentrifuge to remove precipitated aggregates and then transferred to autosampler vials.
All aCgn samples were first treated with phenylmethylsulfonyl fluoride to inhibit residual amounts of active enzyme and, after dialysis, solutions were frozen, rather than lyophilized, in 0.3 mL aliquots and used within 6 months. […] Solutions for the aggregation study were prepared by first preparing a solution of the cosolute of interest in a 20 mM sodium citrate pH 5 buffer at a concentration double that of interest (adjusting the pH to 5 if needed with the appropriate acid or an 8 M sodium hydroxide solution), then mixing 0.3 mL of this solution with 0.3 mL of a thawed aCgn solution. This solution was then divided into twelve aliquots, each 50 μL in volume, and incubated at an elevated temperature, as described below.
15 μL, of each aCgn sample were injected into an Agilent 1200 series HPLC, equipped with a Zorbax GF-250 (4.6×250 mm, 4 micron) size exclusion column and a UV-Vis detector, during a sequence. The HPLC mobile phase contained 25 mM citric acid monohydrate, 25 mM sodium acetate, and 200 mM sodium chloride with the pH adjusted to 4.0 using sodium hydroxide. The flow rate was set at 1 mL/min and samples were monitored at 280 nm.
Peak area at each time point was compared to the peak area for an unstressed sample to create a monomer loss profile normalized with respect to the initial concentration. Each profile was compared to a profile for a sample containing no cosolute to determine the change in aggregation rate upon addition of the cosolute. For a control, each aggregation experimental setup had one protein solution that contained no cosolute to verify that the baseline aggregation rate remained constant amongst all experiments.
The most notable consequence of perturbing a protein's environment is the enhancement or inhibition of protein aggregation. Deyoung L R et al. (1993) Accounts Chem Res 26:614-620; Fink A L (1998) Fold Des 3:R9-R23. The guanidinium-modified dendrimers were added to model protein solutions and incubated at an elevated temperature to determine how they influence the rate of this degradation pathway. […] At low dendrimer concentrations (0.05 M), the rate of monomer loss in the presence of the surface-modified dendrimer is slower than when compared to the reference solution. However, this aggregation rate reduction is insignificant when compared to the rate reduction induced by a high concentration of other commonly used additives such as arginine hydrochloride (ArgHCl), which is also depicted in the figure. Furthermore, as the concentration of the surface-modified dendrimer is increased, the aggregation rate reduction decreases until ultimately, the rate of aggregation is increased. At a concentration of 0.2 M, the surface-modified dendrimer induced rapid aggregation, causing a 50% loss in about 10 minutes as opposed to 30 minutes for the solution containing no cosolute. […]
A general note: In gel filtration, larger molecules generally elute earlier.

The target of another series is Concanavalin A (Con A) (Canavalia ensiformis, UniProt P02866). The experiment in a line: Con A aggregation / shelf-life at pH 6.5 and 37° C. Type of series: physicochemical. The note with it: for Con A t95/t95, 0 (Shelf-Life Extension Factor): isotonic concentrations, 40 mM sodium phosphate pH 6.5, 37° C., time for 5% loss of protein vs no additive. How it is done: This Shelf-Life Extension Factor was determined by comparing the length of time, t95, for a 5% loss of protein when in the presence of the compounds to the original length of time, t95,0 for a 5% loss. For comparison purposes, isotonic concentrations (as determined by VPO) of the compounds were used and Shelf-Life Extension Factor values for commonly used excipients at isotonic concentrations are shown as well. Shelf-life values of aCgn were determined at 52.5° C. and at 37° C. for Con A.

In series [2] the target is T1, α-chymotrypsinogen A (aCgn). The series is described as follows: DSC denaturation midpoint temperature (Tm) of aCgn. It is filed as physicochemical, Bovine. How it is done:
The thermodynamic stability of aCgn in the presence of the arginine salts was determined by DSC (Microcal VP-Differential Scanning calorimeter located in the Biophysical Instrumentation Facility (BIF) at MIT). Each reading began with a minimum of three buffer-buffer up and down scans (in this case, the buffer also contains the cosolute of interest) to establish a reproducible thermal history followed by a single protein-buffer up scan. aCgn was analyzed at a concentration of 1 mg/mL in a 20 mM sodium citrate pH 5 buffer containing the cosolute of interest and a scan rate of 90° C./hour. The data was analyzed in the MicroCal Origin® plotting software. In the analysis, the last buffer-buffer reference scan was first subtracted from the data and then the data was normalized with respect to the protein concentration, cell volume, and scan rate. The baseline (which was progressed through the peak) was then subtracted from the plot and the denaturation midpoint temperature, Tm, was taken as the temperature at the peak maximum of the unfolding event. For each arginine salt, three concentrations (including zero concentration) were tested and Tm values with respect to cosolute concentration were fitted to a linear trend.
The thermostability of aCgn at 1 mg/mL in the presence of the modified dendrimers was assessed by determining the denaturation midpoint temperature (Tm) from DSC scans, which is a qualitative indicator of how the conformational stability of the protein is perturbed. Ghosh K et al. (2009) Proc Natl Acad Sci USA 106:10649-10654.

Series [3] can be described thus: Partial molar volume from density measurements of dendrimer only solutions. It is filed as physicochemical.
The target in series [4] is T1, α-chymotrypsinogen A (aCgn). The series is described as follows: Preferential interaction with aCgn by vapor pressure osmometry (VPO). It is filed as physicochemical, Bovine. The following applies: for Γexp preferential interaction coefficient of aCgn: 0.17-[…] dendrimer salt, VPO. How it is done:
Osmolality measurements were carried out according to the previously described procedure. For improved accuracy, all samples were prepared gravimetrically using a Mettler Toledo balance with a precision of 0.1 mg. Partial molar volume values of the
Stock solutions of both BSA and lysozyme and stock solutions of the cosolutes were each prepared in a 40 mM sodium phosphate buffer, pH 6.0 (aCgn measurements were conducted in 20 mM sodium citrate buffer, pH 3.5 or pH 5.0). Stock solutions of the cosolutes were used so that a series of samples could be easily produced with varying solute concentrations by dilution with water and buffer. The protein stock solutions were further purified by placing the solutions under dialysis for 48 hours at room temperature against two changes of buffer (1 L each). […] To determine the concentration, samples of each stock solution were diluted gravimetrically with water to a final optical density of about 1.0 and the concentration determined spectrophotometrically with a PerkinElmer Lambda 35 UV/Vis spectrometer. It should be noted that the protein stock solutions were stored at 4° C. and used within one week of their preparation.
[formula] A Wescor Vapro® vapor pressure osmometer (model 5520) was used for all osmometry measurements. The instrument was calibrated using 0.1, 0.29, and 1 mol/kg osmolality standards provided by Wescor. Due to slight drifts in the calibration points, the instrument was recalibrated after every four measurements and the thermocouple was cleaned daily using concentrated ammonium hydroxide followed by a rinse with HPLC grade water. […] The data sets for each cosolute included at least 16 individually made solutions (both for the sets with and without the protein). Each sample contained approximately 80 μL of solution (40 μL of diluted cosolute stock solution and 40 μL of the protein stock solution). A minimum of three measurements on each solution were made. If the standard deviation for a particular solution was greater than 2 mmol/kg, more measurements were taken or another sample was prepared. For a given solute, data representing the dependence of osmolality on solute molality were fitted by a quadratic equation, with all fitting parameters floated. Data were weighted by the standard deviation of the individual osmolality measurements for the same solution using the nonlinear fitting program Igor Pro.
To gain further insight into how the modified dendrimer salts inhibit protein-protein interactions, preferential interaction coefficient (Γ23) values at various concentrations were determined, both experimentally via vapor pressure osmometry (VPO) measurements and computationally via MD simulations. The experimental results for the interaction between modified generation 0 PAMAM dendrimers and aCgn are expressed in Table 2, which summarizes the polynomial fit and uncertainty of the experimental data. Theoretical preferential interaction coefficient values were computed from the MD simulation using the procedure outlined in our previous work. Baynes B M and Trout B L (2003) J Phys Chem B 107:14058-14067; Shukla D et al. (2009) J Phys Chem B 113:12546-12554.

“Also recorded” adds a separate entry of the source.

`CC(=O)O` [acetate]: in series [1], the “aCgn aggregation suppression compared with other salt forms / generations (FIG. 5, 6, 8)” value is on record as “moderately improves the performance; also recorded: only improved slightly”.
For `OCC(O)CO` [Glycerol, reference compound], the “Con A t95/t95, 0 (Shelf-Life Extension Factor)” value (“Con A t95/t95” below) at Concanavalin A (Con A) was 1.3.
`N=C(N)NCCNC(=O)CCN(CCNC(=O)CCN(CCC(=O)NCCN(CCC(=O)NCCNC(=N)N)CCC(=O)NCCNC(=N)N)CCN(CCC(=O)NCCN(CCC(=O)NCCNC(=N)N)CCC(=O)NCCNC(=N)N)CCC(=O)NCCN(CCC(=O)NCCNC(=N)N)CCC(=O)NCCNC(=N)N)CCC(=O)NCCNC(=N)N.O=P(O)(O)O.O=P(O)(O)O.O=P(O)(O)O.O=P(O)(O)O.O=P(O)(O)O.O=P(O)(O)O.O=P(O)(O)O.O=P(O)(O)O.O=P(O)(O)O.O=P(O)(O)O.O=P(O)(O)O.O=P(O)(O)O.O=P(O)(O)O.O=P(O)(O)O` [Dend. 1 Gdm(H2PO4)]: in series [1], the “aCgn aggregation suppression compared with other salt forms / generations (FIG. 5, 6, 8)” value is on record as “lower for all concentrations” and the “aCgn t95/t95, 0 (Shelf-Life Extension Factor)” value (shortened to “aCgn t95/t95”) is recorded as 16.3.
On to `OC[C@H]1O[C@@](CO)(O[C@H]2O[C@H](CO)[C@@H](O)[C@H](O)[C@H]2O)[C@@H](O)[C@@H]1O` [Sucrose, reference compound], for which, in series [1], the “aCgn t95/t95” value came out at 1.9.
As to “Generation 1 PAMAM Dendrimer, Ethylene Diamine Core, with Guanidinium Chloride Surface Groups [G1-Gdn]”, the “rate of aCgn monomer loss compared to the reference solution” value in series [1] is given as “large increase in the rate of aggregation”.
`N=C(N)NCCNC(=O)CCN(CCNC(=O)CCN(CCC(=O)NCCN(CCC(=O)NCCNC(=N)N)CCC(=O)NCCNC(=N)N)CCN(CCC(=O)NCCN(CCC(=O)NCCNC(=N)N)CCC(=O)NCCNC(=N)N)CCC(=O)NCCN(CCC(=O)NCCNC(=N)N)CCC(=O)NCCNC(=N)N)CCC(=O)NCCNC(=N)N.O=S(=O)(O)O.O=S(=O)(O)O.O=S(=O)(O)O.O=S(=O)(O)O.O=S(=O)(O)O.O=S(=O)(O)O.O=S(=O)(O)O` [Dend. 1 Gdm(SO4)1/2]: the “Con A t95/t95” value was 16.7 at Concanavalin A (Con A), “greater than 15” on Concanavalin A (Con A) (listed as generation 1 dendrimer with a guanidinium sulfate surface) and 16.7 on Concanavalin A (Con A) (listed as sulfate form of the generation 1 modified dendrimer). The “Con A shelf-life, times longer than with glycerol or sucrose” value on Concanavalin A (Con A) (pH 6.5, 37° C.) is “over 10 times”.
With `Cl.N=C(N)NCCC[C@H](N)C(=O)O` [ArgHCl, arginine hydrochloride, reference compound], the “aCgn t95/t95” value in series [1] is reported as 3.3. In addition, on Concanavalin A (Con A), the “Con A t95/t95” value is 0.4.
Regarding `Cl.Cl.Cl.Cl.Cl.Cl.N=C(N)NCCNC(=O)CCN(CCC(=O)NCCNC(=N)N)CCN(CCC(=O)NCCNC(=N)N)CCC(=O)NCCNC(=N)N` [GdmCl, Generation 0 Polyamidoamine (PAMAM) dendrimer with a surface modified to guanidinium], the “rate of lowering the melting temperature of aCgn relative to ordinary GdmCl” value in series [2] is “double”. In series [2] (1 mg/mL aCgn, 20 mM sodium citrate pH 5, maximum dendrimer 0.2 mol/L), the “dTm/d[3] aCgn denaturation midpoint temperature increment” value is −13.9 K * L/mol. The “rate of decrease of Tm of aCgn” value in series [2] (concentrations less than 0.2 mol/L) is 13.9 ° C.*M^−1. For the same compound, the “rate of aCgn monomer loss compared to the reference solution” value in series [1] was “slower”. Moreover, in series [1] (additive 0.2 M, no cosolute 30 minutes), the “time for 50% loss of aCgn monomer” value is recorded as “about 10 minutes”. For the same compound, the “V0 partial molar volume at infinite dilution” value in series [3] is 0.5217 L/mol. Besides, in series [4] (50 mg/mL aCgn, 20 mM sodium citrate pH 5, maximum dendrimer 0.2 mol/L), the “Γ23/[3] preferential interaction with aCgn” value is given as −8.1 ± 3.6 mol/mol. The “Γexp preferential interaction coefficient of aCgn” value in series [4] is −1.5; in series [4] (listed as chloride salt), −1.5±0.7.
In the case of `O=S(=O)([O-])[O-].[Na+].[Na+]` [Na2SO4, sodium sulfate, reference compound], the “aCgn t95/t95” value in series [1] was determined as 3.1.
